# Results taken from paper PMC5641942 (Physiological Reports, 2017).
# Where two headings read alike, the source gives them in different places.
# What was measured:
# [1] = design: method as in Sved et al. (2007); settings: male Sprague-Dawley rats, ref Sved et al. (2007), cited from earlier work
# [2] = Intravenous taurine pharmacokinetics in rats; format: in vivo, male Sprague-Dawley rats; settings: for A / B / α / β: two-compartment model; for clearance / AUC(0-inf): male, Sprague-Dawley, rat, plasma; for clearance: iv
# Description: (§1) The pH was adjusted with NaOH or HCl to 7.40 ± 0.05.
# (§2) The animals were acclimatized for a minimum of 5 days in groups of two and maintained on standard feed with free access to water. Prior to dosing, the animals were fasted for 16–20 h with free access to water.
# (§3) Plasma was harvested immediately by 10 min of centrifugation at 4°C, 3600g (Multifuge 1 S‐R, Heraeus, Hanau, Germany) and stored in polypropylene tubes (Pony Vial, PerkinElmer, Waltham, MA, USA) at −20°C until analysed. At the end of the experiment, animals were sacrificed by spinal dislocation using a guillotine. Plasma samples were left to defrost and mixed with 4 mL of liquid scintillation cocktail. The samples were counted for 3 min on a scintillation counter from Tri‐Carb 2900TR.
# (§4) Based on this V d1, volume of distribution in the central compartment 1; V d2, volume of distribution in the peripheral compartment 2; AUC, area under the curve; and K10, the elimination rate from the central department, were calculated using Phoenix® 6.3 version (Pharsight Corporation, A Certara Company, USA). […] C max and t max were found as mean values of the plasma concentration profiles within each group. Area under the plasma concentration versus time profiles (AUC), an expression of total exposure, were determined with noncompartmental analysis using the linear trapezoidal rule from time zero to C max and by log linear methods from C max to the last measured plasma concentration and denoted AUC0‐tlast, k e is the first order elimination rate constant calculated as the slope from the terminal log plasma concentration time curve of individual animals. The total clearance was calculated as dose divided by AUC.
# [3] = Oral taurine pharmacokinetics in rats; format: in vivo, male Sprague-Dawley rats; settings: for AUC: read-out: AUC0‐tlast (converted); for k el: read-out: k e (converted)
# Description: as §1, §2, §3, §4
# [4] = biological target: T1, TauT (Homo sapiens, UniProt P31641); settings: pH 6.0, 52 nmol/L taurine
# T1 sequence (P31641 1-620): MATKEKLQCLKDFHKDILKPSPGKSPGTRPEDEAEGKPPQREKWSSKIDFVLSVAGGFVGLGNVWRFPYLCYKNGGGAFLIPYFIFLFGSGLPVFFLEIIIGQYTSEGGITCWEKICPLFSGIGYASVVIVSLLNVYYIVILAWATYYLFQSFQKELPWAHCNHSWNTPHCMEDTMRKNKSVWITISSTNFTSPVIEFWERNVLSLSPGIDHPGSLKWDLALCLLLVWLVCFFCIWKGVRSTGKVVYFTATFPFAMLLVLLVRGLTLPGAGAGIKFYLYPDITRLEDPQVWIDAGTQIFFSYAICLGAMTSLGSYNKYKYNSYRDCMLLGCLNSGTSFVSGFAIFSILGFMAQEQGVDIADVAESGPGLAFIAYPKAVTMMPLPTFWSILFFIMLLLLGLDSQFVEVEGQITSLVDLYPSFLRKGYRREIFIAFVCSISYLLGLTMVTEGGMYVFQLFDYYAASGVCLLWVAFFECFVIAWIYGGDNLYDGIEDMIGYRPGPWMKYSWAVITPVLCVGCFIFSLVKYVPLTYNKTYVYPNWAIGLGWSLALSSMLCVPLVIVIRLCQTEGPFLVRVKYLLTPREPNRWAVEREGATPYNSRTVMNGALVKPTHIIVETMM
# [5] = Oral taurine pharmacokinetics in rats; format: in vivo; settings: male, Sprague-Dawley, rat, plasma, median [Q1, Q3]
# [6] = biological target: T1, TauT; test: Concentration-dependent taurine uptake in Caco-2 cells at pH 7.4; format: in vitro ADME; design: endogenous in cells; host or cells: Caco-2; settings: for K m of saturable taurine uptake: Caco-2, pH 7.4, 0.052–100 μmol/L taurine, 5 min
# Description: Polycarbonate membranes (1.12 cm^2, 0.4 μm pore size) of TranswellTM inserts or 24-well cell culture plates (1.90 cm^2) were used as supports for cell cultivation. […] Experiments were performed 6 days after seeding the Caco-2 cells cultured on 24 wells plates or performed 13-15 days postseeding cells on TranswellTM insert. […] The culture medium was changed every 2-3 days. […] HBSS buffer consisted of in mM: […] KCl, 5.33; […] NaCl, 138; […] Nohr et al. 2014b).
# [7] = design: method as in Yu et al. 2013; settings: beagle dogs, noncompartmental analysis; ref Yu et al. 2013; cited from earlier work
# [8] = male, Sprague-Dawley, rat, plasma, oral 10 mg/kg
# [9] = male, Sprague-Dawley, rat, plasma, oral 30 mg/kg
# [10] = male, Sprague-Dawley, rat, plasma, oral 100 mg/kg
# [11] = male, Sprague-Dawley, rat, plasma, oral 299 mg/kg
# [12] = male, Sprague-Dawley, rat, plasma, oral 997 mg/kg
smiles,measurement,setting,value
"NCCS(=O)(=O)O [Taurine, 2‐aminoethane sulfonic acid]",AUC,[1]; oral 30 mg/kg,236 µg·h/mL
same,AUC,[1]; oral 300 mg/kg,1760 µg·h/mL
same,AUC0‐∞/dose,[2]; IV 1 mg/kg,89 ± 18.9 μg·min/mL pr. mg/kg
same,K10,[2]; IV 1 mg/kg,0.04 ± 0.01 min⁻¹
same,V d1,[2]; IV 1 mg/kg,0.299 ± 0.048 L/kg
same,V d2,[2]; IV 1 mg/kg,4.608 ± 0.974 L/kg
same,A,[2]; IV 1 mg/kg,3.5 ± 0.5 µg/mL
same,B,[2]; IV 1 mg/kg,0.12 ± 0.03 µg/mL
same,α,[2]; IV 1 mg/kg,0.14 ± 0.02 min⁻¹
same,β,[2]; IV 1 mg/kg,1.9 ± 0.4 1/min *10^−3
same,AUC0‐∞/dose,[2]; IV 10 mg/kg,59 ± 19.0 μg·min/mL pr. mg/kg
same,K10,[2]; IV 10 mg/kg,0.06 ± 0.01 min⁻¹
same,V d1,[2]; IV 10 mg/kg,0.353 ± 0.062 L/kg
same,V d2,[2]; IV 10 mg/kg,4.662 ± 1.153 L/kg
same,A,[2]; IV 10 mg/kg,31.0 ± 4.2 µg/mL
same,B,[2]; IV 10 mg/kg,0.89 ± 0.14 µg/mL
same,α,[2]; IV 10 mg/kg,0.144 ± 0.03 min⁻¹
same,β,[2]; IV 10 mg/kg,3.0 ± 0.9 1/min *10^−3
same,AUC0‐∞/dose,[2]; IV 30 mg/kg,115 ± 39.2 μg·min/mL pr. mg/kg
same,K10,[2]; IV 30 mg/kg,0.03 ± 0.01 min⁻¹
same,V d1,[2]; IV 30 mg/kg,0.323 ± 0.063 L/kg
same,V d2,[2]; IV 30 mg/kg,8.374 ± 4.466 L/kg
same,B,[2]; IV 30 mg/kg,1.87 ± 0.45 µg/mL
same,α,[2]; IV 30 mg/kg,0.07 ± 0.01 min⁻¹
same,β,[2]; IV 30 mg/kg,1.3 ± 0.6 1/min *10^−3
same,clearance,"[2]; 1 mg/kg, IV 1 mg/kg, read-out: CL",11.7 ± 1.3 mL/min/kg
same,clearance,"[2]; 10 mg/kg, IV 10 mg/kg, read-out: CL",18.7 ± 2.54 mL/min/kg
same,clearance,"[2]; 30 mg/kg, IV 30 mg/kg, read-out: CL",9.4 ± 1.42 mL/min/kg
same,clearance,"[2]; IV 1–30 mg/kg, compartmental analysis, read-out: clearance",9 to 18 mL/min/kg
same,AUC(0-inf),[2]; IV 1 mg/kg,1.48 µg·h/mL
same,AUC(0-inf),[2]; IV 10 mg/kg,9.78 µg·h/mL
same,AUC(0-inf),[2]; IV 30 mg/kg,57.5 µg·h/mL
same,Cmax,[3]; [8],2 ± 0.2 µg/mL
same,AUC,[3]; [8],3.55 µg·h/mL
same,k el,[3]; [8],6.67e-05 s⁻¹
same,Cmax,[3]; [9],15.7 ± 2.4 µg/mL
same,AUC,[3]; [9],18.6 µg·h/mL
same,k el,[3]; [9],0.000117 s⁻¹
same,Cmax,[3]; [10],70 ± 6.5 µg/mL
same,AUC,[3]; [10],89.9 µg·h/mL
same,k el,[3]; [10],0.000167 s⁻¹
same,Cmax,[3]; [11],228 ± 16 µg/mL
same,AUC,[3]; [11],307 µg·h/mL
same,k el,[3]; [11],0.000167 s⁻¹
same,Cmax,[3]; [12],643 ± 81 µg/mL
same,Tmax,"[3]; male, Sprague-Dawley, rat, plasma, oral 997 mg/kg, median [Q1, Q3]",45 min
same,AUC,[3]; [12],1320 µg·h/mL
same,k el,[3]; [12],0.00015 s⁻¹
same,AUC0‐∞/dose,[3]; oral 10 mg/kg,21 ± 1.3 μg·min/mL pr. mg/kg
same,AUC0‐∞/dose,[3]; oral 30 mg/kg,37 ± 4.5 μg·min/mL pr. mg/kg
same,AUC0‐∞/dose,[3]; oral 100 mg/kg,54 ± 6.0 μg·min/mL pr. mg/kg
same,AUC0‐∞/dose,[3]; oral 299 mg/kg,62 ± 6.7 μg·min/mL pr. mg/kg
same,AUC0‐∞/dose,[3]; oral 997 mg/kg,79 ± 6.7 μg·min/mL pr. mg/kg
same,TauT share of carrier mediated taurine uptake,[4],78%
same,Tmax,[5]; oral 100 mg/kg,30 min
same,Tmax,[5]; oral 299 mg/kg,30 min
same,V max of saturable taurine uptake,"[6]; Caco-2, pH 7.4",4.6 ± 0.8 pmol/(cm^2·min)
same,"nonsaturable component, B","[6]; Caco-2, pH 7.4",5.7e-08 ± 8e-09 cm/min
same,K m of saturable taurine uptake,[6],5.6 µM
same,K m of saturable taurine uptake,[6]; listed as taurine,5.6 ± 2.6 µM
same,clearance,[7],3.33 mL/min/kg
